This is an account of results in ChEMBL document CHEMBL5046268, “Synthesis, Biological Evaluation, and Molecular Modeling Studies of 3,4-Diarylpyrazoline Series of Compounds as Potent, Nonbrain Penetrant Antagonists of Cannabinoid-1 (CB1R) Receptor with Reduced Lipophilicity” (J Med Chem, 2022).

Series [1] deals with Mus musculus. The experiment in a line: Anti-obesity activity in high fat diet-induced obese C57BL/6J mouse assessed as reduction in body weight at 3 mg/kg, ip dosed daily for 1 week. The format is functional. The following applies: 168 h, time 1 weeks.
The target of series [2] is T1, Cannabinoid receptor 1 (Homo sapiens, UniProt P21554). In words: Inverse agonist activity at human CB1R expressed in CHO-K1 cell membrane assessed as […] in [35S]GTPgammaS binding. Format: functional, cell membranes. A general note: GTPγS resists hydrolysis and so accumulates on activated G proteins.
T1 sequence (P21554 whole entry): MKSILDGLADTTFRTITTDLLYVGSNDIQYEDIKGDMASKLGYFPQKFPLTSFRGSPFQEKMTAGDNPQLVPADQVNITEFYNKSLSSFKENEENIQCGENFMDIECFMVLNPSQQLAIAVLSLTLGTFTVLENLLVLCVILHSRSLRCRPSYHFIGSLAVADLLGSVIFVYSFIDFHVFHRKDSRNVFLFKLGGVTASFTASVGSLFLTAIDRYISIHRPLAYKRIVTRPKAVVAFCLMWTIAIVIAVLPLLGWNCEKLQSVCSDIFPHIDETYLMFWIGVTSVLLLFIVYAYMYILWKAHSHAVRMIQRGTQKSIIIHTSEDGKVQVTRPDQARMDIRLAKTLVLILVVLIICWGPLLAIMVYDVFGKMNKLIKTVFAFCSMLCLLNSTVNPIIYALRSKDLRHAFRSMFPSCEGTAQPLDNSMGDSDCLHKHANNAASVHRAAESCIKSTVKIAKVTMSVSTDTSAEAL
Series [3] in a line: Microsomal stability in human liver microsomes assessed as half life at 3 mg/kg, ip by LC-MS/MS analysis. The format is ADME, Microsome. For orientation: Microsomes from liver hold many membrane-bound enzymes, among them those of drug oxidation.
The target of series [4] is T1, Cannabinoid receptor 1. The experiment in a line: Displacement of [3H]- CP55940 from human CB1R expressed in CHO-K1 cells membrane by Cheng-Prusoff equation analysis. The format is cell membranes, Cell membrane. The settings on record: read-out: Ki. (Displacement assays read how much labelled ligand stays bound in the presence of the test substance.)
A short description of series [5]: Microsomal stability in C57BL/6J mouse liver microsomes assessed as half life at 3 mg/kg, ip by LC-MS/MS analysis. The format is ADME, Microsome.
In a further series the target is Cannabinoid receptor 2 (Homo sapiens, UniProt P34972). In words: Displacement of [3H]- CP55940 from human CB2R expressed in CHO-K1 cells membrane by Cheng-Prusoff equation analysis. Format: cell membranes, Cell membrane. The settings on record: read-out: Ki.
Chain of Cannabinoid receptor 2 (P34972 whole entry): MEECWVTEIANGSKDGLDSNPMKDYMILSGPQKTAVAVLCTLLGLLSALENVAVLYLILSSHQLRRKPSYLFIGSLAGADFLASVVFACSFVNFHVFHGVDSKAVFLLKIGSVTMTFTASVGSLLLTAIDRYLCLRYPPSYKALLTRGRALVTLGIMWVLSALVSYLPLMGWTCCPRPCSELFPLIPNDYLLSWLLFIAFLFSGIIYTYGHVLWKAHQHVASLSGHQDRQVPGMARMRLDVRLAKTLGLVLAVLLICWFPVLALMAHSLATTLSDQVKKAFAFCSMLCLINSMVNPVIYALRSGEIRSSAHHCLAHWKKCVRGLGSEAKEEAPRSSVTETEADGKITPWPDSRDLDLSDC
Series [6] concerns Mus musculus. The experiment in a line: Anti-obesity activity in high fat diet-induced obese C57BL/6J mouse assessed as reduction in food intake at 3 mg/kg, ip dosed daily for 1 week. Format: functional, organism-based. The settings on record: time 1.0 weeks.
A short description of series [7]: Stability in C57BL/6J mouse plasma assessed as half life at 3 mg/kg, ip by LC-MS/MS analysis. Format: ADME, organism-based.
Series [8] in a line: Protein binding in human plasma assessed as […] at 5 uM for 4 hrs by LC-MS/MS analysis. The format is ADME, cell-free. The settings on record: read-out: PPB.
For series [9], the target named is T1, Cannabinoid receptor 1. The experiment in a line: Antagonist activity at human CB1R expressed in CHO-K1 cell membranes assessed as stimulation of [35S]-GTPgammaS binding by liquid scintillation counting method. Format: functional, Cell membrane. The following applies: read-out: IC50.
Series [10] in a line: Protein binding in mouse plasma assessed as […] at 5 uM and incubated for 4 hrs by LC-MS/MS analysis. Format: ADME, cell-free. The following applies: read-out: PPB.
Series [11] has as its system Mus musculus. The experiment in a line: Anti-obesity activity in high fat diet-induced obese C57BL/6J mouse assessed as reduction in food intake at 10 mg/kg, ip measured every daily for 1 weeks. Format: functional, organism-based.
Series [12] concerns Mus musculus. The experiment in a line: Anti-obesity activity in high fat diet-induced obese C57BL/6J mouse assessed as reduction in body weight at 10 mg/kg, ip measured every daily for 1 weeks. The format is functional. The following applies: 168 h.

The source made the active and inactive calls. The rule behind the calls is not given here.

Take `C/C(N)=N\C(=N\S(=O)(=O)N1CCCCC1)N1C[C@H](c2ccccc2)C(c2ccc(Cl)cc2)=N1`: the inhibition in vivo (usually the change of the read-out against control, counted positive when it falls) at 3 mg/kg in the series on Mus musculus [1] stood at 8%. Moreover, the results for the IC50 on Cannabinoid receptor 1 [2] and on Cannabinoid receptor 1 [9] were 2 nM and 4 nM, respectively. Further, the half-life (as a rule, how long it takes for the measured level to halve) in [3] was more than 2 min; in [5] it was more than 2 min; in series [7], less than 120 min. The Ki (usually a dissociation constant, usually derived from enzyme kinetics or from competition with a known ligand) was found to be 1.6 nM on Cannabinoid receptor 1 [4] and 43 nM at Cannabinoid receptor 2. The outcome in the series on Mus musculus [6] was Active. Moreover, the fraction unbound at 4 h, 5 µM in series [8] and in series [10] was not above 0.006 each time.
For `CS/C(N)=N/C(=N/S(=O)(=O)N1CCC(C(F)(F)F)CC1)N1C[C@H](c2ccccc2)C(c2ccc(Cl)cc2)=N1`, the IC50 – broadly, the concentration at which inhibition is half-maximal – on Cannabinoid receptor 1 [2] was determined as 1.6 nM; on Cannabinoid receptor 1 [9], 2 nM. For the same compound, the outcome in the series on Mus musculus [11] was Active. The results for the Ki on Cannabinoid receptor 1 [4] and on Cannabinoid receptor 2 were 0.7 nM and 334 nM, respectively. The half-life in series [7] is less than 120 min. Further, the inhibition in vivo at 10 mg/kg in the series on Mus musculus [12] worked out at 8%. Moreover, the fraction unbound at 4 h, 5 µM in series [8] and in [10] was not above 0.006 in each case.
Turning to `CCN(CC)S(=O)(=O)/N=C(/N=C(/C)N)N1C[C@H](c2ccccc2)C(c2ccc(Cl)cc2)=N1`, the values for the IC50 on Cannabinoid receptor 1 [2] and at Cannabinoid receptor 1 [9] were 0.8 nM and 1.2 nM, respectively. Moreover, the half-life in [3] was more than 2 min; in series [5], more than 2 min; in series [7], less than 120 min. In addition, in the series on Mus musculus [11], the outcome was Active. The figures for the Ki on Cannabinoid receptor 1 [4] and on Cannabinoid receptor 2 were 1.2 nM and 66 nM, respectively. In the series with Mus musculus [12], the inhibition in vivo at 10 mg/kg stood at 8%. Moreover, the fraction unbound at 4 h, 5 µM in series [8] and in series [10] was not above 0.006 in each case.
